Drawing on patent publication US8946230B2, “Aryl- and heteroaryl- nitrogen-heterocyclic compounds as PDE10 inhibitors” (Amgen Inc., priority 2010, dated 2015), this text covers IC50 for 31 compounds.

For this test, the target named is T1, PDE10 (UniProt Q8CA95).
T1 sequence (Q8CA95 1-790): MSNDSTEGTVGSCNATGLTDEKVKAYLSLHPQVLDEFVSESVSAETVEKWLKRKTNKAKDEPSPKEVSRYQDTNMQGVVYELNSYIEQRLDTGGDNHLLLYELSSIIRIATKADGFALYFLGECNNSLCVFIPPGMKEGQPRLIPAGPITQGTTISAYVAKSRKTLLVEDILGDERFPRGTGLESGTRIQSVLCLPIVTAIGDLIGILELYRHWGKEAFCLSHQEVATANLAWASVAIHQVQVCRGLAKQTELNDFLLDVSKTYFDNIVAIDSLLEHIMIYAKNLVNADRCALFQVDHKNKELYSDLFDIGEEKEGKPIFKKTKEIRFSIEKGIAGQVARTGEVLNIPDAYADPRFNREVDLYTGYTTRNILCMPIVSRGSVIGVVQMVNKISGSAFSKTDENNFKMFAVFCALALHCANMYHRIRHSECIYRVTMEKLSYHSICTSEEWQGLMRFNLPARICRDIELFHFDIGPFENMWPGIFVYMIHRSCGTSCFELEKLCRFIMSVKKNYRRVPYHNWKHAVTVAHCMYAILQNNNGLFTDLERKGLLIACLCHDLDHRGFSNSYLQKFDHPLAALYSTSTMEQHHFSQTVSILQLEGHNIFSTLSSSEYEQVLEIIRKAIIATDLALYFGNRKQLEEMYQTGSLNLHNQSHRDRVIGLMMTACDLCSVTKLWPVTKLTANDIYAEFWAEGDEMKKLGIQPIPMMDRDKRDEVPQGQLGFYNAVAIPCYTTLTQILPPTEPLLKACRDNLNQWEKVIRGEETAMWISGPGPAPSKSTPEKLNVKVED
Nature of the test: PDE10 enzyme inhibition, IMAP TR-FRET assay (Example A: MPDE10A7 Enzyme Activity and Inhibition). It is filed as biochemical. As to the method:
MPDE10A7 Enzyme Activity and Inhibition Enzyme Activity. An IMAP TR-FRET assay was used to analyze the enzyme activity (Molecular Devices Corp., Sunnyvale Calif.). 5 μL of serial diluted PDE10A (BPS Bioscience, San Diego, Calif.) or tissue homogenate was incubated with equal volumes of diluted fluorescein labeled cAMP or cGMP for 60 min in 384-well polystyrene assay plates (Corning, Corning, N.Y.) at room temperature. After incubation, the reaction was stopped by adding 60 μL of diluted binding reagents and was incubated for 3 hours to overnight at room temperature. The plates were read on an Envision (Perkin Elmer, Waltham, Mass.) for time resolved fluorescence resonance energy transfer. The data were analyzed with GraphPad Prism (La Jolla, Calif.). Enzyme Inhibition. To check the inhibition profile, 5 μL of serial diluted compounds were incubated with 5 μL of diluted PDE10 enzyme (BPS Bioscience, San Diego, Calif.) or tissue homogenate in a 384-well polystyrene assay plate (Corning, Corning, N.Y.) for 30 min at room temperature. After incubation, 10 μL of diluted fluorescein labeled cAMP or cGMP substrate were added and incubated for 60 min at room temperature. The reaction was stopped by adding 60 μL of diluted binding reagents and plates were read on an Envision (Perkin Elmer, Waltham, Mass.) for time resolved fluorescence resonance energy transfer. The data were analyzed with GraphPad Prism (La Jolla, Calif.).

Where [1] appears, read: Table 1A, Examples 11-56, read-out: PDE10 IC50.

By IC50 is commonly meant the concentration that gives 50% inhibition.

Read-outs that look alike come from different tables or passages of the source.

Take `N#Cc1ccc2[nH]c(C3CCN(c4nccnc4-c4ccccc4)CC3)nc2c1` [Example 1A, 2-[1-(3-PHENYL-PYRAZIN-2-YL)-PIPERIDIN-4-YL]-1H-BENZOIMIDAZOLE-5-CARBONITRILE]: under “read-out: IC50”, the IC50 came to 272 nM.

As for `N#Cc1ccc2[nH]c(C3CCN(c4nccnc4N4CCOCC4)CC3)nc2c1` [Example 1B, 2-[1-(3-MORPHOLIN-4-YL-PYRAZIN-2-YL)-PIPERIDIN-4-YL]-1H-BENZOIMIDAZOLE-5-CARBONITRILE], the IC50 (read-out: IC50) was 2000 nM.

For `Cc1ccc2[nH]c(C3CN(c4nccnc4OC4CCOCC4)C3)nc2c1` [Example 1C, 5-METHYL-2-(1-(3-(TETRAHYDRO-2H-PYRAN-4-YLOXY)PYRAZIN-2-YL)AZETIDIN-3-YL)-1H-BENZO[D]IMIDAZOLE], the IC50 (read-out: IC50) turned out to be 239 nM.

In the case of `Clc1ccc2[nH]c(C3CN(c4ccnc(N5CCOCC5)n4)C3)nc2c1` [Example 1D, 4-(4-(3-(5-CHLORO-1H-BENZO[D]IMIDAZOL-2-YL)AZETIDIN-1-YL)PYRIMIDIN-2-YL)MORPHOLINE], for the setting “read-out: IC50”, the IC50 came out at 645 nM.

On to `Cc1ccc2[nH]c(C3CN(c4c(Cl)cncc4Cl)C3)nc2c1` [Example 2A, 2-[1-(3,5-DICHLORO-PYRIDIN-4-YL)-AZETIDIN-3-YL]-5-METHYL-1H-BENZOIMIDAZOLE], for which, where the note is “read-out: IC50”, the IC50 turned out to be 210 nM.

As to `Cc1ccc2[nH]c(C3CN(c4c(Cl)cncc4-c4ccccc4)C3)nc2c1` [Example 2B, 2-[1-(3-CHLORO-5-PHENYL-PYRIDIN-4-YL)-AZETIDIN-3-YL]-5-METHYL-1H-BENZOIMIDAZOLE], for the setting “read-out: IC50”, the IC50 was 22 nM.

Consider `O=C(c1cccnc1N1CC(c2nc3cc(Cl)ccc3[nH]2)C1)N1CC(O)C1` [Example 3, {2-[3-(5-CHLORO-1H-BENZOIMIDAZOL-2-YL)-AZETIDIN-1-YL]-PYRIDIN-3-YL}-(3-HYDROXY-AZETIDIN-1-YL)-METHANONE], for which the IC50 (read-out: IC50) was 549 nM.

Regarding `CNC(=O)c1nccnc1N1CC(c2nc3cc(Cl)ccc3[nH]2)C1` [Example 4, 3-[3-(5-CHLORO-1H-BENZOIMIDAZOL-2-YL)-AZETIDIN-1-YL]-PYRAZINE-2-CARBOXYLIC ACID METHYLAMIDE], the IC50 (read-out: IC50) was found to be 3880 nM.

On to `Clc1ccc2[nH]c(C3CN(c4cc(OC5CCOCC5)ccn4)C3)nc2c1` [Example 5, 5-CHLORO-2-(1-(4-(TETRAHYDRO-2H-PYRAN-4-YLOXY)PYRIDIN-2-YL)AZETIDIN-3-YL)-1H-BENZO[D]IMIDAZOLE], for which the IC50 (read-out: IC50) amounted to 1090 nM.

`Clc1ccc2[nH]c(C3CN(c4cc(C5CCOCC5)ncn4)C3)nc2c1` [Example 6, 5-CHLORO-2-(1-(6-(TETRAHYDRO-2H-PYRAN-4-YL)PYRIMIDIN-4-YL)AZETIDIN-3-YL)-1H-BENZO[D]IMIDAZOLE]: under “read-out: IC50”, the IC50 is 1280 nM.

In the case of `Clc1ccc2[nH]c(C3CN(c4nc(N5CCOCC5)ncc4Cl)C3)nc2c1` [Example 7, 4-(5-CHLORO-4-(3-(5-CHLORO-1H-BENZO[D]IMIDAZOL-2-YL)AZETIDIN-1-YL)PYRIMIDIN-2-YL)MORPHOLINE], the half-inhibitory concentration (IC50) (read-out: IC50) was found to be 155 nM.

On to `Clc1ccc2[nH]c(C3CN(c4nccnc4C4CCOCC4)C3)nc2c1` [Example 8, 5-CHLORO-2-(1-(3-(TETRAHYDRO-2H-PYRAN-4-YL)PYRAZIN-2-YL)AZETIDIN-3-YL)-1H-BENZO[D]IMIDAZOLE], for which the IC50 (read-out: IC50) worked out at 1160 nM.

Take `Clc1ccc2[nH]c(C3CN(c4cc(C5CCOCC5)ccn4)C3)nc2c1` [Example 9, 5-CHLORO-2-(1-(4-(TETRAHYDRO-2H-PYRAN-4-YL)PYRIDIN-2-YL)AZETIDIN-3-YL)-1H-BENZO[D]IMIDAZOLE]: the IC50 (read-out: IC50) is 1170 nM.

`Clc1ccc2[nH]c(C3CN(c4nccnc4OC4CCOCC4)C3)nc2c1` [Example 10, 5-CHLORO-2-(1-(3-(TETRAHYDRO-2H-PYRAN-4-YLOXY)PYRAZIN-2-YL)AZETIDIN-3-YL)-1H-BENZO[D]IMIDAZOLE]: the IC50 (read-out: IC50) amounted to 900 nM.

For `N#Cc1ccc2[nH]c(C3CCN(c4ncccc4Cl)C3)nc2c1` (stereo not shown) [Example 11, 2-[1-(3-chloro-pyridin-2-yl)-pyrrolidin-3-yl]-1H-benzoimidazole-5-carbonitrile], the IC50 under setting [1] amounted to 310 nM.

On to `N#Cc1ccc2[nH]c(C3CCN(c4nccnc4N4CCOCC4)C3)nc2c1` (stereo not shown) [Example 12, 2-[1-(3-Morpholin-4-yl-pyrazin-2-yl)-pyrrolidin-3-yl]-1H-benzoimidazole-5-carbonitrile], for which, under setting [1], the IC50 worked out at 535 nM.

Turning to `c1ccc(-c2nccnc2N2CCC(c3nc4cc(C5CC5)ccc4[nH]3)CC2)cc1` [Example 13, 5-Cyclopropyl-2-[1-(3-phenyl-pyrazin-2-yl)-piperidin-4-yl]-1H-benzoimidazole], the IC50 under setting [1] worked out at 277 nM.

As to `N#Cc1ccc2[nH]c(C3CN(c4nccnc4-c4ccccc4)C3)nc2c1` [Example 14, 2-[1-(3-phenyl-pyrazin-2-yl)-azetidin-3-yl]-1H-benzoimidazole-5-carbonitrile], the IC50 under setting [1] is 161 nM.

Regarding `N#Cc1ccc2[nH]c(C3CCN(c4nccnc4-c4ccccc4)C3)nc2c1` (stereo not shown) [Example 15, 2-[1-(3-phenyl-pyrazin-2-yl)-pyrrolidin-3-yl]-1H-benzoimidazole-5-carbonitrile], the IC50 under setting [1] was found to be 461 nM.

Turning to `O=C(c1cccnc1N1CC(c2nc3cc(Cl)ccc3[nH]2)C1)N1CCC1` [Example 16, Azetidin-1-yl-{2-[3-(5-chloro-1H-benzoimidazol-2-yl)-azetidin-1-yl]-pyridin-3-yl}-methanone], under setting [1], the IC50 was determined as 1180 nM.

As to `O=C(c1cccnc1N1CC(c2nc3cc(Cl)ccc3[nH]2)C1)N1CCOCC1` [Example 17, {2-[3-(5-chloro-1H-benzoimidazol-2-yl)-azetidin-1-yl]-pyridin-3-yl}-morpholin-4-yl-methanone], the IC50 under setting [1] amounted to 32900 nM.

Consider `O=C(Nc1ccccc1)c1cccnc1N1CC(c2nc3cc(Cl)ccc3[nH]2)C1` [Example 18, 2-[3-(5-chloro-1H-benzoimidazol-2-yl)-azetidin-1-yl]-N-phenyl-nicotinamide], for which the IC50 under setting [1] is 2600 nM.

Take `O=C(NCc1ccccc1)c1cccnc1N1CC(c2nc3cc(Cl)ccc3[nH]2)C1` [Example 19, N-Benzyl-2-[3-(5-chloro-1H-benzoimidazol-2-yl)-azetidin-1-yl]-nicotinamide]: the IC50 under setting [1] stood at 4650 nM.

`O=C(NCCc1ccccc1)c1cccnc1N1CC(c2nc3cc(Cl)ccc3[nH]2)C1` [Example 20, 2-[3-(5-chloro-1H-benzoimidazol-2-yl)-azetidin-1-yl]-N-phenethyl-nicotinamide]: the 50% inhibitory concentration (IC50) under setting [1] was determined as 1680 nM.

Turning to `CC(C)NC(=O)c1cccnc1N1CC(c2nc3cc(Cl)ccc3[nH]2)C1` [Example 21, 2-[3-(5-chloro-1H-benzoimidazol-2-yl)-azetidin-1-yl]-N-isopropyl-nicotinamide], the IC50 under setting [1] is 4780 nM.

For `CC(C)CNC(=O)c1cccnc1N1CC(c2nc3cc(Cl)ccc3[nH]2)C1` [Example 22, 2-[3-(5-chloro-1H-benzoimidazol-2-yl)-azetidin-1-yl]-N-isobutyl-nicotinamide], the IC50 under setting [1] was determined as 2230 nM.

Consider `O=C(NCC1CCOCC1)c1cccnc1N1CC(c2nc3cc(Cl)ccc3[nH]2)C1` [Example 23, 2-[3-(5-chloro-1H-benzoimidazol-2-yl)-azetidin-1-yl]-N-(tetrahydro-pyran-4-ylmethyl)-nicotinamide], for which the IC50 under setting [1] is 37600 nM.

With `Cc1ccccc1-c1nccnc1N1CC(c2nc3cc(Cl)ccc3[nH]2)C1` [Example 24, 5-chloro-2-[1-(3-o-tolyl-pyrazin-2-yl)-azetidin-3-yl]-1H-benzoimidazole], the IC50 under setting [1] was determined as 80.6 nM.

Consider `Cc1cccc(-c2nccnc2N2CC(c3nc4cc(Cl)ccc4[nH]3)C2)c1` [Example 25, 5-chloro-2-[1-(3-m-tolyl-pyrazin-2-yl)-azetidin-3-yl]-1H-benzoimidazole], for which the IC50 under setting [1] amounted to 15 nM.

Consider `Cc1ccc(-c2nccnc2N2CC(c3nc4cc(Cl)ccc4[nH]3)C2)cc1` [Example 26, 5-chloro-2-[1-(3-p-tolyl-pyrazin-2-yl)-azetidin-3-yl]-1H-benzoimidazole], for which the IC50 under setting [1] worked out at 134 nM.

In the case of `COc1ccccc1-c1nccnc1N1CC(c2nc3cc(Cl)ccc3[nH]2)C1` [Example 27, 5-chloro-2-{1-[3-(2-methoxy-phenyl)-pyrazin-2-yl]-azetidin-3-yl}-1H-benzoimidazole], the IC50 under setting [1] amounted to 4330 nM.
